Test results as given in patent publication US8569229B2, “Compositions and methods which modulate G-protein signaling for the treatment of inflammatory disorders such as asthma and allergic conjunctivitis” (The Children's Hospital of Philadelphia, priority 2008, dated 2013).
Ends that are not written are not given here.

Tested on: OVA-sensitized rabbits
Assay: Allergic conjunctivitis response to ocular OVA challenge in OVA-sensitized rabbits
Type: in vivo, rabbit
Details: 15 μl of 1 μM topically 20 minutes prior to OVA, examined at 60 minutes
Method: Similar to previous studies investigating either allergic asthma or allergic conjunctivitis in animal models, in vivo studies were conducted wherein adult NZW rabbits were initially systemically immunized with weekly intra-peritoneal (i.p.) injections of 2.5 mg ovalbumin (OVA) and 10 mg of alum adjuvant for 4-5 weeks. Following sensitization, as previously described in other animal models of allergic conjunctivitis (Groneberg D. A. et al. Allergy 58: 1101-1113, 2003), the OVA allergen was topically introduced into the conjunctival sac of the eyes of the rabbit to examine its ocular allergic inflammatory response. […] Accordingly, for each animal, 15 μl of a sterile 1 μM concentration of the MPS:anti-Gβγ peptide (prepared in PBS) was topically applied into the conjunctival sac of one eye 20 minutes prior to subsequent instillation of OVA (500 μg in 15 μl PBS), and the carrier MPS peptide alone (i.e., control “sham” pretreatment) was applied to the other eye 20 minutes prior to subsequent instillation of OVA. The eyes were then clinically examined for an acute ocular inflammatory response to OVA challenge and photographs were taken of each eye at 60 minutes following OVA challenge. […]

“MPS-Phosducin-like protein C terminus (AAVALLPAVLLALLAVTDQLGEDFFAVDLEAFLQEFGLLPEKE; also: MPS attached) [anti-Gβγ peptide]” was tested, and the “clinical signs of allergic conjunctivitis after ocular OVA challenge” value was “virtually no clinical signs of conjunctival inflammation” and the “clinical signs of allergic conjunctivitis after ocular OVA challenge” value (listed as MPS-conjugated anti-Gβγ peptide) was “signs of allergic conjunctivitis are absent”.
